{"source": "patent US5674881A", "about": "“Quaternary ammonium salts of aromatic amine compounds, their preparation and pharmaceutical compositions in which they are present” (Elf Sanofi, priority 1992, dated 1997)", "key": {"substance P": {"system": "substance P", "assay": "substance P antagonism"}, "[1]": {"molecular_target": "T1, substance P receptors on rat cortex (Rattus norvegicus, UniProt P14600)", "T1 construct": "in tests performed on rat cortex; from tissue; host or cells: rat cortex", "T1 sequence (P14600 whole entry)": "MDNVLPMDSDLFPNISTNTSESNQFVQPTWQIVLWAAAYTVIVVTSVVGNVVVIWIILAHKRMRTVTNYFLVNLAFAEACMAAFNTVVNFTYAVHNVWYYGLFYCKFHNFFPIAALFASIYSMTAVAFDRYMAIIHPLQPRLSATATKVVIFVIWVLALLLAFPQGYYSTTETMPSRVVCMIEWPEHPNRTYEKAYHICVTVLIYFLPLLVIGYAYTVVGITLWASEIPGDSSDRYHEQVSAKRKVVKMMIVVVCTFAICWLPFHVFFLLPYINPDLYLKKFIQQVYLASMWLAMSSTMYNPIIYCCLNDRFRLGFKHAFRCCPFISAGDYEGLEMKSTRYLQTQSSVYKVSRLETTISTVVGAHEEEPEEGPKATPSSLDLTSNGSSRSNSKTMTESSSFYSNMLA", "assay": "antagonism of the binding of substance P to its receptor, rat cortex", "procedure": "(§1) Thus the compounds according to the invention antagonize the binding of substance P to its receptor with a Ki of between 0.1 and 800 nM in tests performed on rat cortex and with a Ki of between 0.01 and 30 nM in tests performed on the lymphoblastic cell line IM9."}, "[2]": {"molecular_target": "T2, substance P receptors on human cells of the IM9 line (Homo sapiens, UniProt P25103)", "T2 construct": "in tests performed on the lymphoblastic cell line IM9; endogenous in cells; host or cells: IM9 (human lymphoblastic cell line)", "T2 sequence (P25103 whole entry)": "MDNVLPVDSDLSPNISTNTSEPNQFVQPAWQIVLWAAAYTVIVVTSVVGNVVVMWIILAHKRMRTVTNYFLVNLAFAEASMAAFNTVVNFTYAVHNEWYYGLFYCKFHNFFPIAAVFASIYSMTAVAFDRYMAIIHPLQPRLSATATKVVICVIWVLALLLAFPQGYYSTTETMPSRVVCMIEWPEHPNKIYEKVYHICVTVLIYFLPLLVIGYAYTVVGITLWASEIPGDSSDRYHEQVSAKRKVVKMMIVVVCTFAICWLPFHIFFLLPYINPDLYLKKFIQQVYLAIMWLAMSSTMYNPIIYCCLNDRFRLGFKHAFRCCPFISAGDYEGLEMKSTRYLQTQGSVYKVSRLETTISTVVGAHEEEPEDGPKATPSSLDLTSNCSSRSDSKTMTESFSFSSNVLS", "assay": "antagonism of the binding of substance P to its receptor, lymphoblastic cell line IM9", "procedure": "as §1"}, "neurokinin receptors": {"system": "neurokinin receptors", "assay": "affinity for the neurokinin receptors", "assay_type": "binding"}, "[3]": {"system": "substance P receptors, IM9 cells", "conditions": "substance P binding, Gitter et al. 1991; cited from earlier work"}, "[4]": {"system": "substance P receptors, U373 MG cells", "conditions": "substance P binding, Gitter et al. 1991; cited from earlier work"}, "[5]": {"molecular_target": "substance P receptors (rat receptor)", "conditions": "3H-SP binding on rat cortical membranes, Snider et al. 1991; cited from earlier work"}, "[6]": {"molecular_target": "substance P receptors (bovine receptor)", "conditions": "3H-SP binding on bovine caudal membrane, Snider et al. 1991; cited from earlier work"}, "NK1 receptor": {"system": "NK1 receptor", "conditions": "agonist; D. Regoli 1988 and 1989; cited from earlier work"}}, "data": [{"molecule": "CC(C)Oc1cccc(CC(=O)N(C)CC(CCN2CCC(c3ccccc3)CC2)c2ccc(Cl)c(Cl)c2)c1", "note": "(stereo not drawn) [(I'b), N-Methyl-N-[4-(4-phenylpiperidin-1-yl)-2-(3,4-dichlorophenyl)butyl]-3-isopropoxyphenylacetamide]", "values": [{"measurement": "substance P antagonism", "setting": "substance P", "value": "powerful substance P antagonists"}, {"measurement": "Ki", "setting": "[1]", "value": "0.3 to 0.6", "unit": "nM"}, {"measurement": "Ki", "setting": "[2]", "value": "0.3 to 0.6", "unit": "nM"}, {"measurement": "affinity for the neurokinin receptors", "setting": "neurokinin receptors", "value": "very high affinity"}]}, {"molecule": "COc1ccccc1CN[C@H]1C2CCN(CC2)[C@H]1C(c1ccccc1)c1ccccc1", "note": "[CP 96,345]", "values": [{"measurement": "Ki", "setting": "[3]", "value": 0.4, "unit": "nM"}, {"measurement": "Ki", "setting": "[4]", "value": 0.4, "unit": "nM"}, {"measurement": "Ki", "setting": "[5]", "value": 240, "unit": "nM"}, {"measurement": "Ki", "setting": "[6]", "value": 3, "unit": "nM"}]}, {"molecule": "[Sar^9, Met-(O2)^11 ]-SP", "values": [{"measurement": "selectivity for the NK1 receptor", "setting": "NK1 receptor", "value": "selective"}]}]}
